Key:
Test in all cases: Test B pre-/postemergence
Format in all cases: in vivo
Parameters in all cases: key: 0 is no effect; 10 is complete control
soybean (Glycine max) = tested on: soybean (Glycine max)
Summary of the method: (§1)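 Compounds in a surfactant-containing, non-phytotoxic solvent blend are applied to freshly planted seed (preemergence) and, concurrently, to seedlings of 2 to 18 cm at 1–4 leaves (postemergence). Plants stay in the greenhouse twelve to sixteen days and are then scored visually from 0 (no effect) to 10 (complete control).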

corn (Zea mays) = tested on: corn (Zea mays)
Summary of the method: as §1

[1] = tested on: velvetleaf (Abutilon theophrasti)
Summary of the method: as §1

[2] = tested on: crabgrass (Digitaria sanguinalis)
Summary of the method: as §1

[3] = tested on: sugar beet (Beta vulgaris)
Summary of the method: as §1

[4] = tested on: broadleaf signalgrass (Brachiaria decumbens)
Summary of the method: as §1

[5] = tested on: blackgrass (Alopecurus myosuroides)
Summary of the method: as §1

[6] = tested on: giant foxtail (Setaria faberii)
Summary of the method: as §1

[7] = tested on: purple nutsedge (Cyperus rotundus)
Summary of the method: as §1

[8] = tested on: cocklebur (Xanthium strumarium)
Summary of the method: as §1

[9] = tested on: pigweed (Amaranthus retroflexus)
Summary of the method: as §1

wild oat (Avena fatua) = tested on: wild oat (Avena fatua)
Summary of the method: as §1

[10] = tested on: wheat (Triticum aestivum)
Summary of the method: as §1

[11] = tested on: momingglory (Ipomoea hederacea)
Summary of the method: as §1

[12] = Preemergence, Rate 62 g/ha, scale of 0 to 10

SMILES: Cc1cnc(-n2cnc(C(F)(F)F)c2)nc1C(=O)c1cccc(C(F)(F)F)c1 [Compound 61]
- Plant response rating, Soybean (soybean (Glycine max); [12]): 0
- Soybean plant response rating (soybean (Glycine max); Rate 62 g/ha, Postemergence): 4
- Soybean plant response rating (soybean (Glycine max); Rate 125 g/ha, Postemergence): 5
- Plant response rating, Soybean (soybean (Glycine max); Rate 125 g/ha, Preemergence): 1
- Plant response rating, Soybean (soybean (Glycine max); Rate 250 g/ha, Postemergence): 5
- Plant response rating, Soybean (soybean (Glycine max); Rate 250 g/ha, Preemergence): 1
- Plant response rating, Soybean (soybean (Glycine max); Rate 500 g/ha, Postemergence): 6
- Plant response rating, Soybean (soybean (Glycine max); Rate 500 g/ha, Preemergence): 2
- Plant response rating, Corn (corn (Zea mays); [12]): 1
- Corn plant response rating (corn (Zea mays); Rate 62 g/ha, Postemergence): 2
- Corn plant response rating (corn (Zea mays); Rate 125 g/ha, Postemergence): 3
- Plant response rating, Corn (corn (Zea mays); Rate 125 g/ha, Preemergence): 1
- Plant response rating, Corn (corn (Zea mays); Rate 250 g/ha, Postemergence): 3
- Plant response rating, Corn (corn (Zea mays); Rate 250 g/ha, Preemergence): 1
- Plant response rating, Corn (corn (Zea mays); Rate 500 g/ha, Postemergence): 4
- Plant response rating, Corn (corn (Zea mays); Rate 500 g/ha, Preemergence): 2
- Plant response rating, Velvetleaf [1, 12]: 9
- Velvetleaf plant response rating ([1]; Rate 62 g/ha, Postemergence): 7
- Velvetleaf plant response rating ([1]; Rate 125 g/ha, Postemergence): 7
- Plant response rating, Velvetleaf ([1]; Rate 125 g/ha, Preemergence): 10
- Plant response rating, Velvetleaf ([1]; Rate 250 g/ha, Postemergence): 8
- Plant response rating, Velvetleaf ([1]; Rate 250 g/ha, Preemergence): 10
- Plant response rating, Velvetleaf ([1]; Rate 500 g/ha, Postemergence): 8
- Plant response rating, Velvetleaf ([1]; Rate 500 g/ha, Preemergence): 10
- Plant response rating, Crabgrass [2, 12]: 3
- Crabgrass plant response rating ([2]; Rate 62 g/ha, Postemergence): 3
- Crabgrass plant response rating ([2]; Rate 125 g/ha, Postemergence): 3
- Plant response rating, Crabgrass ([2]; Rate 125 g/ha, Preemergence): 5
- Plant response rating, Crabgrass ([2]; Rate 250 g/ha, Postemergence): 7
- Plant response rating, Crabgrass ([2]; Rate 250 g/ha, Preemergence): 8
- Plant response rating, Crabgrass ([2]; Rate 500 g/ha, Postemergence): 9
- Plant response rating, Crabgrass ([2]; Rate 500 g/ha, Preemergence): 10
- Plant response rating, Sugarbeets [3, 12]: 10
- Sugarbeets plant response rating ([3]; Rate 62 g/ha, Postemergence): 9
- Sugarbeets plant response rating ([3]; Rate 125 g/ha, Postemergence): 10
- Plant response rating, Sugarbeets ([3]; Rate 125 g/ha, Preemergence): 10
- Plant response rating, Sugarbeets ([3]; Rate 250 g/ha, Postemergence): 10
- Plant response rating, Sugarbeets ([3]; Rate 250 g/ha, Preemergence): 10
- Plant response rating, Sugarbeets ([3]; Rate 500 g/ha, Postemergence): 10
- Plant response rating, Sugarbeets ([3]; Rate 500 g/ha, Preemergence): 10
- B. signalgrass plant response rating ([4]; Rate 62 g/ha, Postemergence): 3
- B. signalgrass plant response rating ([4]; Rate 62 g/ha, Preemergence): 5
- B. signalgrass plant response rating ([4]; Rate 125 g/ha, Postemergence): 4
- Plant response rating, B. signalgrass ([4]; Rate 125 g/ha, Preemergence): 7
- Plant response rating, B. signalgrass ([4]; Rate 250 g/ha, Postemergence): 4
- Plant response rating, B. signalgrass ([4]; Rate 250 g/ha, Preemergence): 8
- Plant response rating, B. signalgrass ([4]; Rate 500 g/ha, Postemergence): 5
- Plant response rating, B. signalgrass ([4]; Rate 500 g/ha, Preemergence): 9
- Plant response rating, Blackgrass [5, 12]: 1
- Blackgrass plant response rating ([5]; Rate 62 g/ha, Postemergence): 3
- Blackgrass plant response rating ([5]; Rate 125 g/ha, Postemergence): 4
- Plant response rating, Blackgrass ([5]; Rate 125 g/ha, Preemergence): 3
- Plant response rating, Blackgrass ([5]; Rate 250 g/ha, Postemergence): 6
- Plant response rating, Blackgrass ([5]; Rate 250 g/ha, Preemergence): 5
- Plant response rating, Blackgrass ([5]; Rate 500 g/ha, Postemergence): 8
- Plant response rating, Blackgrass ([5]; Rate 500 g/ha, Preemergence): 8
- Plant response rating, Giant foxtail [6, 12]: 8
- Giant foxtail plant response rating ([6]; Rate 62 g/ha, Postemergence): 2
- Giant foxtail plant response rating ([6]; Rate 125 g/ha, Postemergence): 4
- Plant response rating, Giant foxtail ([6]; Rate 125 g/ha, Preemergence): 9
- Plant response rating, Giant foxtail ([6]; Rate 250 g/ha, Postemergence): 5
- Plant response rating, Giant foxtail ([6]; Rate 250 g/ha, Preemergence): 10
- Plant response rating, Giant foxtail ([6]; Rate 500 g/ha, Postemergence): 9
- Plant response rating, Giant foxtail ([6]; Rate 500 g/ha, Preemergence): 10
- Plant response rating, Nutsedge [7, 12]: 0
- Nutsedge plant response rating ([7]; Rate 62 g/ha, Postemergence): 0
- Nutsedge plant response rating ([7]; Rate 125 g/ha, Postemergence): 0
- Plant response rating, Nutsedge ([7]; Rate 125 g/ha, Preemergence): 0
- Plant response rating, Nutsedge ([7]; Rate 250 g/ha, Postemergence): 0
- Plant response rating, Nutsedge ([7]; Rate 250 g/ha, Preemergence): 0
- Plant response rating, Cocklebur [8, 12]: 0
- Cocklebur plant response rating ([8]; Rate 62 g/ha, Postemergence): 3
- Cocklebur plant response rating ([8]; Rate 125 g/ha, Postemergence): 7
- Plant response rating, Cocklebur ([8]; Rate 125 g/ha, Preemergence): 0
- Plant response rating, Cocklebur ([8]; Rate 250 g/ha, Postemergence): 8
- Plant response rating, Cocklebur ([8]; Rate 250 g/ha, Preemergence): 1
- Plant response rating, Cocklebur ([8]; Rate 500 g/ha, Postemergence): 8
- Plant response rating, Cocklebur ([8]; Rate 500 g/ha, Preemergence): 10
- Plant response rating, Redroot pigweed [9, 12]: 8
- Redroot pigweed plant response rating ([9]; Rate 62 g/ha, Postemergence): 8
- Redroot pigweed plant response rating ([9]; Rate 125 g/ha, Postemergence): 9
- Plant response rating, Redroot pigweed ([9]; Rate 125 g/ha, Preemergence): 9
- Plant response rating, Redroot pigweed ([9]; Rate 250 g/ha, Postemergence): 9
- Plant response rating, Redroot pigweed ([9]; Rate 250 g/ha, Preemergence): 9
- Plant response rating, Redroot pigweed ([9]; Rate 500 g/ha, Postemergence): 9
- Plant response rating, Redroot pigweed ([9]; Rate 500 g/ha, Preemergence): 10
- Plant response rating, Wild oats (wild oat (Avena fatua); [12]): 4
- Wild oats plant response rating (wild oat (Avena fatua); Rate 62 g/ha, Postemergence): 3
- Wild oats plant response rating (wild oat (Avena fatua); Rate 125 g/ha, Postemergence): 3
- Plant response rating, Wild oats (wild oat (Avena fatua); Rate 125 g/ha, Preemergence): 5
- Plant response rating, Wild oats (wild oat (Avena fatua); Rate 250 g/ha, Postemergence): 3
- Plant response rating, Wild oats (wild oat (Avena fatua); Rate 250 g/ha, Preemergence): 7
- Plant response rating, Wild oats (wild oat (Avena fatua); Rate 500 g/ha, Postemergence): 5
- Plant response rating, Wild oats (wild oat (Avena fatua); Rate 500 g/ha, Preemergence): 8
- Plant response rating, Wheat [10, 12]: 1
- Wheat plant response rating ([10]; Rate 62 g/ha, Postemergence): 3
- Wheat plant response rating ([10]; Rate 125 g/ha, Postemergence): 3
- Plant response rating, Wheat ([10]; Rate 125 g/ha, Preemergence): 3
- Plant response rating, Wheat ([10]; Rate 250 g/ha, Postemergence): 3
- Plant response rating, Wheat ([10]; Rate 250 g/ha, Preemergence): 4
- Plant response rating, Wheat ([10]; Rate 500 g/ha, Postemergence): 4
- Plant response rating, Wheat ([10]; Rate 500 g/ha, Preemergence): 4
- Morningglory plant response rating ([11]; Rate 62 g/ha, Postemergence): 5
- Morningglory plant response rating ([11]; Rate 125 g/ha, Postemergence): 9
- Plant response rating, Morningglory ([11]; Rate 125 g/ha, Preemergence): 3
- Plant response rating, Morningglory ([11]; Rate 250 g/ha, Preemergence): 10
- Plant response rating, Morningglory ([11]; Rate 500 g/ha, Postemergence): 9
- Plant response rating, Morningglory ([11]; Rate 500 g/ha, Preemergence): 10
